Literature values in patent US8278451B2, “Pseudoazulenyl nitrones” (The Florida International University Board of Trustees, priority 2006, dated 2012).

Experiments:
[1] = test system: LPS-induced organ dysfunction and cytokine secretion; details: rats, LPS administered
lifespan = details: aged animal model, daily intraperitoneal injection, male and female
[2] = test system: human diploid fibroblast cells; details: human diploid fibroblast cells in culture
[3] = test system: age-related changes in cognitive performance; details: aged rats, chronic treatment
[4] = aqueous solution at pH 7 and 20° C.

one-electron oxidative potential (vs. NHE) [4] [V] | Compound | LPS-induced leukopenia [1] | LPS-induced pulmonary edema [1] | LPS-induced thrombocytopenia [1] | organ dysfunction and cytokine secretion induced by LPS [1] | lifespan (lifespan) | onset of senescence [2] | age-related changes in cognitive performance [3]
– | CC1(C)Cc2ccccc2C=[N+]1[O-] [MDL 101,002] | failed to prevent leukopenia | prevented pulmonary edema | partially reduced thrombocytopenia | reduces organ dysfunction and cytokine secretion | – | – | –
– | CC(C)(C)[N+]([O-])=Cc1ccccc1 [PBN, alpha-phenyl-N-tert-butylnitrone] | – | – | – | – | remarkable extension of the lifespan | effectively delayed the onset of senescence | benefit (i.e., improve) age-related changes in cognitive performance
0.48 | Cc1c(C)c2c(c(C)c1O)CC[C@@](C)(CCC[C@H](C)CCC[C@H](C)CCCC(C)C)O2 [vitamin E, alpha-tocopherol] | – | – | – | – | – | – | benefit (i.e., improve) age-related changes in cognitive performance
